Laboratory results from PubChem BioAssay AID248 (DTP/NCI, 2004).
“And” between values parts separate entries of the source, which are not always exact repeats. Equal values may be shown once. Inconclusive results and toxic doses are left out.

Tested on: L1210 leukemia ip in BDF1 mice, survival T/C
Assay: NCI In Vivo Anticancer Drug Screen. Data for tumor model L1210 Leukemia (intraperitoneal) in B6D2F1 (BDF1) mice
Settings: endpoint: mean survival time, higher = longer survival
How it was run: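 Tumor was transplanted into mice, which were then dosed with test compound or vehicle alone. Survival was recorded for each group, and the treated figure was expressed relative to the control figure.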

[1] = dose: 100.0 mg/kg/injection, schedule: Q01DX009 (ip), vehicle: saline with Tween-80
[2] = dose: 100.0 mg/kg/injection, schedule: Q04DX003 (ip), vehicle: saline with Tween-80
[3] = dose: 200.0 mg/kg/injection, schedule: Q01DX009 (ip), vehicle: saline with Tween-80
[4] = dose: 200.0 mg/kg/injection, schedule: Q04DX003 (ip), vehicle: saline with Tween-80
[5] = dose: 400.0 mg/kg/injection, schedule: Q01DX009 (ip), vehicle: saline with Tween-80
[6] = dose: 400.0 mg/kg/injection, schedule: Q04DX003 (ip), vehicle: saline with Tween-80
[7] = dose: 100.0 mg/kg/injection, schedule: Q04DX003 (ip), vehicle: Klucel (hydroxypropylcellulose) (HPC)
[8] = dose: 200.0 mg/kg/injection, schedule: Q04DX003 (ip), vehicle: Klucel (hydroxypropylcellulose) (HPC)
[9] = dose: 400.0 mg/kg/injection, schedule: Q04DX003 (ip), vehicle: Klucel (hydroxypropylcellulose) (HPC)
[10] = dose: 100.0 mg/kg/injection, schedule: Q01DX009 (ip), vehicle: saline
[11] = dose: 100.0 mg/kg/injection, schedule: Q04DX003 (ip), vehicle: saline
[12] = dose: 200.0 mg/kg/injection, schedule: Q01DX009 (ip), vehicle: saline
[13] = dose: 200.0 mg/kg/injection, schedule: Q04DX003 (ip), vehicle: saline
[14] = dose: 400.0 mg/kg/injection, schedule: Q01DX009 (ip), vehicle: saline
[15] = dose: 400.0 mg/kg/injection, schedule: Q04DX003 (ip), vehicle: saline
[16] = dose: 50.0 mg/kg/injection, schedule: Q01DX001 (ip), vehicle: carboxymethylcellulose (CMC)
[17] = dose: 400.0 mg/kg/injection, schedule: Q01DX001 (ip), vehicle: carboxymethylcellulose (CMC)

`Cc1ccc(Cl)cc1NC(=O)Nc1cccc2c(O)cccc12` was tested, and the T/C (dose: 100.0 mg/kg/injection, schedule: Q01DX001 (ip), vehicle: saline with Tween-80) was 100 % of control, the T/C [1] was 90 % of control and 92 % of control and the T/C (dose: 100.0 mg/kg/injection, schedule: Q04DX002 (ip), vehicle: saline with Tween-80) was 94 % of control and 87 % of control. For the same compound, the T/C [2] was 88 % of control, the T/C (dose: 200.0 mg/kg/injection, schedule: Q01DX001 (ip), vehicle: saline with Tween-80) was 89 % of control and the T/C [3] was 103 % of control and 90 % of control. The T/C (dose: 200.0 mg/kg/injection, schedule: Q04DX002 (ip), vehicle: saline with Tween-80) was 97 % of control and 89 % of control, the T/C [4] was 98 % of control and the T/C (dose: 400.0 mg/kg/injection, schedule: Q01DX001 (ip), vehicle: saline with Tween-80) was 98 % of control. The T/C [5] was 95 % of control, the T/C (dose: 400.0 mg/kg/injection, schedule: Q04DX002 (ip), vehicle: saline with Tween-80) was 94 % of control and 95 % of control and the T/C [6] was 101 % of control.

In the case of `O=C1NC(=O)C(Nc2ccccc2)(c2ccccc2)N1` (configuration not stated), the T/C (dose: 100.0 mg/kg/injection, schedule: Q01DX001 (ip), vehicle: Klucel (hydroxypropylcellulose) (HPC)) is reported as 90 % of control and the T/C (dose: 200.0 mg/kg/injection, schedule: Q01DX001 (ip), vehicle: Klucel (hydroxypropylcellulose) (HPC)) is reported as 95 % of control.

For `c1coc(-c2ncnc3c2Cc2ccccc2-3)c1`, the T/C (dose: 25.0 mg/kg/injection, schedule: Q01DX009 (ip), vehicle: Klucel (hydroxypropylcellulose) (HPC)) was 96 % of control, the T/C (dose: 25.0 mg/kg/injection, schedule: Q04DX003 (ip), vehicle: Klucel (hydroxypropylcellulose) (HPC)) was 98 % of control and the T/C (dose: 50.0 mg/kg/injection, schedule: Q01DX009 (ip), vehicle: Klucel (hydroxypropylcellulose) (HPC)) was 91 % of control. For the same compound, the T/C (dose: 50.0 mg/kg/injection, schedule: Q04DX003 (ip), vehicle: Klucel (hydroxypropylcellulose) (HPC)) was 91 % of control, the T/C (dose: 100.0 mg/kg/injection, schedule: Q01DX009 (ip), vehicle: Klucel (hydroxypropylcellulose) (HPC)) was 102 % of control and the T/C [7] was 100 % of control.

In the case of `O=C(C(=S)N1CCOCC1)c1ccccc1`, the T/C [7] is reported as 101 % of control, the T/C [8] is reported as 104 % of control and the T/C [9] is reported as 101 % of control.

In the case of `O=c1cc(-c2ccccc2)[nH]c2ccc(S(=O)(=O)O)cc12`, the T/C [7] is reported as 93 % of control, the T/C [8] is reported as 106 % of control and the T/C [9] is reported as 96 % of control.

With `O=C1Nc2ccccc2CCc2ccccc21` the T/C [10] was 87 % of control, the T/C [11] was 94 % of control and the T/C [12] was 100 % of control. The T/C [13] was 100 % of control, the T/C [14] was 89 % of control and the T/C [15] was 96 % of control.

In the case of `c1n[nH]c2c1CCC2`, the T/C (dose: 75.0 mg/kg/injection, schedule: Q01DX009 (ip), vehicle: saline with Tween-80) is reported as 97 % of control and the T/C (dose: 150.0 mg/kg/injection, schedule: Q01DX009 (ip), vehicle: saline with Tween-80) is reported as 110 % of control.

In the case of `COc1ccc(/C=C2/COC/C(=C/c3ccc(OC)c(OC)c3)C2=O)cc1OC`, the T/C [10] is reported as 98 % of control, the T/C [11] is reported as 101 % of control and the T/C [12] is reported as 93 % of control. For the same compound, the T/C [13] was 95 % of control, the T/C [14] was 90 % of control and the T/C [15] was 93 % of control.

`CC1(C)C/C(=C/c2ccc([N+](=O)[O-])cc2[N+](=O)[O-])C(=O)O1` was tested, and the T/C [16] was 100 % of control, the T/C (dose: 100.0 mg/kg/injection, schedule: Q01DX001 (ip), vehicle: carboxymethylcellulose (CMC)) was 94 % of control and the T/C (dose: 200.0 mg/kg/injection, schedule: Q01DX001 (ip), vehicle: carboxymethylcellulose (CMC)) was 94 % of control. The T/C [17] was 100 % of control.

`CC(C)=NC(=O)NO.[Cl][Zn][Cl]` was tested, and the T/C (dose: 15.0 mg/kg/injection, schedule: Q01DX001 (ip), vehicle: carboxymethylcellulose (CMC)) was 95 % of control, the T/C (dose: 30.0 mg/kg/injection, schedule: Q01DX001 (ip), vehicle: carboxymethylcellulose (CMC)) was 89 % of control and the T/C (dose: 60.0 mg/kg/injection, schedule: Q01DX001 (ip), vehicle: carboxymethylcellulose (CMC)) was 100 % of control.

`COc1ccccc1-n1c(O)c(N=Nc2ccccc2)c(=O)n(-c2ccc(Br)cc2)c1=S` was tested, and the T/C [2] was 106 % of control, the T/C [4] was 100 % of control and the T/C [6] was 94 % of control.

With `COc1ccc(CN2CCCN(Cc3ccc(OC)cc3OC)C2c2ccccc2O)c(OC)c1` the T/C (dose: 50.0 mg/kg/injection, schedule: Q01DX001 (ip), vehicle: saline) was 97 % of control, the T/C (dose: 100.0 mg/kg/injection, schedule: Q01DX001 (ip), vehicle: saline) was 92 % of control and the T/C (dose: 200.0 mg/kg/injection, schedule: Q01DX001 (ip), vehicle: saline) was 90 % of control. The T/C (dose: 400.0 mg/kg/injection, schedule: Q01DX001 (ip), vehicle: saline) was 101 % of control.

In the case of `CCCCCCCCCCC[As](=O)(O)O`, the T/C (dose: 12.5 mg/kg/injection, schedule: Q01DX001 (ip), vehicle: carboxymethylcellulose (CMC)) is reported as 108 % of control, the T/C (dose: 25.0 mg/kg/injection, schedule: Q01DX001 (ip), vehicle: carboxymethylcellulose (CMC)) is reported as 96 % of control and the T/C [16] is reported as 104 % of control.

For `NCCCc1nc(N)nc(N)c1-c1ccc(Cl)cc1`, the T/C (dose: 25.0 mg/kg/injection, schedule: Q04DX003 (ip), vehicle: saline) was 104 % of control, the T/C (dose: 50.0 mg/kg/injection, schedule: Q04DX003 (ip), vehicle: saline) was 110 % of control and the T/C [11] was 103 % of control.

For `CC(=N/N=C(N)N)/C(C)=N/N=C(N)N`, the T/C (dose: 15.0 mg/kg/injection, schedule: Q01DX Z (ip), vehicle: saline) was 98 % of control, the T/C (dose: 30.0 mg/kg/injection, schedule: Q01DX Z (ip), vehicle: saline) was 97 % of control and the T/C (dose: 60.0 mg/kg/injection, schedule: Q01DX005 (oral), vehicle: saline) was 96 % of control. For the same compound, the T/C (dose: 60.0 mg/kg/injection, schedule: Q01DX Z (ip), vehicle: saline) was 108 % of control and the T/C (dose: 120.0 mg/kg/injection, schedule: Q01DX Z (ip), vehicle: saline) was 98 % of control.

`O=C(Nc1ccc(F)c([N+](=O)[O-])c1)Nc1ccccc1C(F)(F)F` was tested, and the T/C [1] was 90 % of control, the T/C [3] was 96 % of control and the T/C [5] was 97 % of control.

`Cn1c2c(c(=O)n(C)c1=O)C(C=O)C(=O)N2` (configuration not stated) was tested, and the T/C (dose: 100.0 mg/kg/injection, schedule: Q04DX002 (ip), vehicle: saline) was 101 % of control, the T/C (dose: 200.0 mg/kg/injection, schedule: Q04DX002 (ip), vehicle: saline) was 87 % of control and the T/C (dose: 400.0 mg/kg/injection, schedule: Q04DX002 (ip), vehicle: saline) was 90 % of control.

With `COc1ccc2c(c1)Cc1cc(NC(=O)N(CCCl)N=O)ccc1-2` the T/C (dose: 10.0 mg/kg/injection, schedule: Q01DX009 (ip), vehicle: saline) was 151 % of control, the T/C (dose: 20.0 mg/kg/injection, schedule: Q01DX009 (ip), vehicle: saline) was 175 % of control and the T/C (dose: 25.0 mg/kg/injection, schedule: Q01DX001 (ip), vehicle: other) was 122 % of control. For the same compound, the T/C (dose: 33.0 mg/kg/injection, schedule: Q01DX009 (ip), vehicle: carboxymethylcellulose (CMC)) was 188 % of control, the T/C (dose: 45.0 mg/kg/injection, schedule: Q01DX001 (ip), vehicle: other) was 123 % of control and the T/C (dose: 50.0 mg/kg/injection, schedule: Q01DX009 (ip), vehicle: carboxymethylcellulose (CMC)) was 163 % of control. The T/C (dose: 80.0 mg/kg/injection, schedule: Q01DX009 (ip), vehicle: other) was 123 % of control, the T/C (dose: 177.0 mg/kg/injection, schedule: Q01DX001 (ip), vehicle: carboxymethylcellulose (CMC)) was 182 % of control and the T/C (dose: 177.0 mg/kg/injection, schedule: Q01DX001 (ip), vehicle: other) was 154 % of control. The T/C (dose: 177.0 mg/kg/injection, schedule: Q01DX009 (ip), vehicle: carboxymethylcellulose (CMC)) was 107 % of control, the T/C (dose: 266.0 mg/kg/injection, schedule: Q01DX001 (ip), vehicle: carboxymethylcellulose (CMC)) was 178 % of control and the T/C (dose: 266.0 mg/kg/injection, schedule: Q01DX001 (ip), vehicle: other) was 154 % of control. For the same compound, the T/C (dose: 266.0 mg/kg/injection, schedule: Q01DX009 (ip), vehicle: carboxymethylcellulose (CMC)) was 97 % of control, the T/C [17] was 193 % of control and the T/C (dose: 400.0 mg/kg/injection, schedule: Q01DX009 (ip), vehicle: carboxymethylcellulose (CMC)) was 96 % of control. The T/C (dose: 600.0 mg/kg/injection, schedule: Q01DX001 (ip), vehicle: carboxymethylcellulose (CMC)) was 186 % of control.
